Experimental data reported in patent publication US8314150B2, “Kinase protein binding inhibitors” (priority 2008, dated 2012).

Test system: Panc-1 and Miapaca-2 pancreatic cancer cells
Assay: MTT cell viability assay, pancreatic cancer cells
Assay type: cell-based, human
Details: 72 hours
Description: The 3-(4,5-dimethylthiazol-2-yl)-5-(3-carboxymethoxyphenyl)-2-(4-sulfophenyl)-2H-tetrazolium compound from Promega Viability kit (Madison, Ill.) was added, and the cells were incubated at 37° C. for 1-2 hours. The optical density on 96-plate was analyzed with a microplate reader at 490 nm to determine cell viability. In addition, cells were stained with trypan blue after 24 hours of treatment with Y15 and the percent of cells that stained positive were determined with a hemacytometer. Cell adhesion assay—The poly-L-Lysine or Collagen (5 μg/ml) coated 96-well plates were blocked with the blocking buffer (medium with 0.5% BSA) for 1 hour at 37 C. […] Then 2% SDS was added to the dried plated and OD at 590 nm was measured for detecting cell adhesion. […] Protein concentrations were determined using a Bio-Rad Kit. The boiled samples were loaded on Ready SDS-10% PAGE gels (Bio Rad, Inc) and used for Western blot analysis with the protein-specific antibody. […] Detachment Assay—Cells were plated with and without inhibitors for 24 hours, and detached and attached cells were counted in a hemocytometer. We calculated the percent of detachment by dividing the number of detached cells by the total number of cells. The percent of detached cells was calculated in three independent experiments. […] For each experiment 300 cells per treatment were counted. […]

## Cl.Cl.Cl.Cl.Nc1cc(N)c(N)cc1N [Y15, 1,2,4,5-benzenetetraamine tetrahydrochloride]
  dose from which cell viability was inhibited: 1 µM
